These results are taken from paper PMC6838683, “Discovery of Human Signaling Systems: Pairing Peptides to G Protein-Coupled Receptors” (Cell, 2019).

Read-outs that look alike come from different tables or passages of the source. Positions of bridges follow the written chain, without caps; N, C: chain ends. No end group written: not given here.

One assay addresses T1, GPR139 (Homo sapiens, UniProt Q6DWJ6).
T1 construct: hIL-2Ra signal peptide (N); expressed in transfected cells
T1 sequence (Q6DWJ6 2-353 limits assumed): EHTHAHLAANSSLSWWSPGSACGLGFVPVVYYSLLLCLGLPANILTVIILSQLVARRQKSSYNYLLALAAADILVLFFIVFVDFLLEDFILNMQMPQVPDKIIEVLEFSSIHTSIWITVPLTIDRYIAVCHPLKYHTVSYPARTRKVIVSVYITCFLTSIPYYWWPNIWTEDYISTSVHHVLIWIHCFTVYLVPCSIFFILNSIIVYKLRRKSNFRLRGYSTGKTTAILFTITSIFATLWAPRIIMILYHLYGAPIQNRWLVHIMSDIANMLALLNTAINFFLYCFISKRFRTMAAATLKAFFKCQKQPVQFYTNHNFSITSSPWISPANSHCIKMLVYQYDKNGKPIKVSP
Briefly: Repeat of proposed literature pairing (mass redistribution and/or internalization). In kind it is cell-based. From the text: (§1) DMR assays provide a single integrated readout of ligand-dependent cellular response, utilizing an optical biosensor in specialized microplates to detect wavelength shifts of reflected light as it passes through the biosensor and the lower portion of the cell (∼150-200 nm). As a signal pathway agnostic approach, DMR assays are well-suited to the study of GPCRs ([Fang et al., 2008], [Schröder et al., 2011]). The mass redistribution response (Δ picometer (pm)) likely reflects a number of intracellular events, including cytoskeletal rearrangement, protein trafficking and receptor internalization. Orphan receptor-expressing cells were gently washed twice with assay buffer (HBSS with 1 mM CaCl2, 1 mM MgCl2, 20 mM HEPES, 0.01% pluronic F-68, pH 7.4) containing 0.1% DMSO and cells were equilibrated for 90 min at 22°C in the EPIC Benchtop (BT) System (Corning) to establish a stable DMR signal. After 3-5 min baseline recordings, peptides (10 μM) were added in duplicate wells using an electronic 384-channel Viaflo pipette (Integra Biosciences, Switzerland) and DMR responses were measured for 60 min at 22°C. 100 nM norepinephrine was included as an internal assay control to assess the cellular DMR response via endogenously-expressed adrenoceptors in the TREx 293 cells. Real-time data were processed using the BT to column converter MS-Excel macro (Corning) and analyzed in GraphPad Prism 7.0. DMR recordings in peptide screening experiments were buffer and solvent corrected and the area under the curve (AUC) was quantified. For subsequent validation experiments, peptides were diluted in assay buffer containing 0.1% DMSO and DMR assays were performed as above. […] Data represent mean ± standard error of the mean (SEM) from at least 3 biologically independent experiments.
A TR-FRET real-time internalization assay was used to examine peptide-dependent changes in orphan receptor localization as described previously ([Foster and Bräuner-Osborne, 2018]). Surface-expressed SNAP-tagged receptors were labeled with a cell-impermeable luminescent terbium cryptate (100 nM SNAP Lumi4-Tb; Cisbio, France) for 1 hr at 37°C. Cells were washed to remove excess terbium and incubated with fluorescein-O-acetic acid (100 μM; Sigma Aldrich) for 5 min at 37°C. Peptides were added as for DMR assays, and internalization responses were recorded for 60 min at 37°C using an EnVision 2104 Multimode plate reader (PerkinElmer). 100 nM GLP-1 was used as a positive control for SNAP-GLP1R internalization. Real-time internalization responses were calculated based on TR-FRET (excitation 340 nm; emission 520 nm and 615 nm), and were expressed as the ratio between donor (terbium) and acceptor (fluorescein) emission. For peptide screening analysis (both DMR and internalization assays), we calculated the area under the curve from the real-time traces. […] Validation experiments for receptor internalization were performed as above. Internalization data was processed in MS-Excel and area under the curve was used to generate concentration-response curves using GraphPad Prism 7.0. Data represent mean ± standard error of the mean (SEM) from at least 3 biologically independent experiments.

The target of another assay is human GPCRs. Also noted: method as in Guide to Pharmacology database. Conditions: max reported value, ref Guide to Pharmacology database, cited from earlier work. From the text: Supplement mmc1.xlsx, sheet "HumanGPCRLigands" | column: pKi_value; pKd_value; pEC50_value; pIC50_value
The next assay deals with T2, NPFF1 (Homo sapiens, UniProt Q9GZQ6).
T2 construct: host or cells: HTLA cells (HEK293-derived)
T2 sequence (Q9GZQ6 whole entry): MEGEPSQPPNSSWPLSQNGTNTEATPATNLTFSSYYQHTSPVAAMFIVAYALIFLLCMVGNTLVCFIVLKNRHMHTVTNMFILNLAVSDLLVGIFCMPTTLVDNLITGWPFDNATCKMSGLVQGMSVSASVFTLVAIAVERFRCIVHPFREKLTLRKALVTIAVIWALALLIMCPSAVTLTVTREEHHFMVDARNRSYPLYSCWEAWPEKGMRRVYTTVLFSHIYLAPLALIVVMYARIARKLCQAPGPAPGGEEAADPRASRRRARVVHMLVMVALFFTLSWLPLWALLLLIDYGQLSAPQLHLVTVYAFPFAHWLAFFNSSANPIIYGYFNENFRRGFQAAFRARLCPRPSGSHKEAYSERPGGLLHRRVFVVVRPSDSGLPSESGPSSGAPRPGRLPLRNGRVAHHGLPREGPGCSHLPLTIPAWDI
As to the kind of experiment: β-arrestin recruitment (Tango), known peptide receptors. The assay is classed as cell-based. Conditions: mean, n = 3. From the text:
Supplement mmc7.xlsx, sheet "Peptide validation data" | column: Emax; pEC50

Assay [1] concerns the target T3, GPR15 (Homo sapiens, UniProt P49685).
T3 construct: hIL-2Ra signal peptide (N); expressed in transfected cells
T3 sequence (P49685 2-360 limits assumed): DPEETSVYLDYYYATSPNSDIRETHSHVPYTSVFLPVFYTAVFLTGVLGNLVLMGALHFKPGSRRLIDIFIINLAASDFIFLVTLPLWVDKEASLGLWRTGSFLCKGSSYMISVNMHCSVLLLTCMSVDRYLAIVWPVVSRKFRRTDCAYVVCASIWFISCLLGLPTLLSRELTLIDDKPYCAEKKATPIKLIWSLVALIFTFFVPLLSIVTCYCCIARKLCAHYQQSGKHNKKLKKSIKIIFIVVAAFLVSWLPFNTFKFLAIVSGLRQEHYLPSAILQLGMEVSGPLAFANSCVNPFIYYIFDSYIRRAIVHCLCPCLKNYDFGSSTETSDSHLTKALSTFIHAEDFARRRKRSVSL
Briefly: cAMP inhibition (Gi/o), HTRF with forskolin. Conditions: receptor GPR15, mean, SEM and n (4). The assay is classed as cell-based. The method, then:
Peptide-dependent second messenger responses were measured using commercially available HTRF-based IP1 and cAMP kits (Cisbio) as described previously ([Nørskov-Lauritsen et al., 2014]). Receptor expression was induced for 48 hr with 0.1 μg/ml doxycycline in 10 cm dishes. For IP1 measurements (to measure Gq/11), 2,500 cells/well were mixed with ligands in triplicate wells in low volume white 384-well plates at 37°C for 30 min. For cAMP assays, 2,500 cells/well were added in triplicate wells in white 384-well plates in the absence or presence of 3 μM forskolin (to measure Gs and Gi/o activation respectively). 100 μM IBMX was included to prevent cAMP degradation during 30 min stimulation on a plate shaker at room temperature. For both assays, HTRF was measured using an EnVision 2104 Multimode plate reader (PerkinElmer).

Assay [2] has as its target T3, GPR15. Briefly: Dynamic mass redistribution (DMR), concentration-response. The assay is classed as cell-based. Conditions: receptor GPR15, mean; for DMR assays Emax (peak or AUC): SEM and n (2-3). As to the method: (§2) 48 hr prior to parallel assaying, SNAP-tagged oGPCR cells were plated (10,000 cells/well) in fibronectin-coated 384-well Epic biosensor microplates (Corning) and poly-D-lysine coated white 384-well plates (for internalization assays). SNAP- GLP-1 receptor was plated alongside orphan receptor cells as an internal assay control for internalization assays. Receptor-expression was induced with 0.1 μg/ml doxycycline.
as §1

Assay [3] deals with T3, GPR15. Briefly: Real-time receptor internalization (TR-FRET), concentration-response. The assay is classed as cell-based. Conditions: mean, SEM and n (3). As to the method:
as §2
(§3) A TR-FRET real-time internalization assay was used to examine peptide-dependent changes in orphan receptor localization as described previously ([Foster and Bräuner-Osborne, 2018]). Surface-expressed SNAP-tagged receptors were labeled with a cell-impermeable luminescent terbium cryptate (100 nM SNAP Lumi4-Tb; Cisbio, France) for 1 hr at 37°C. Cells were washed to remove excess terbium and incubated with fluorescein-O-acetic acid (100 μM; Sigma Aldrich) for 5 min at 37°C. Peptides were added as for DMR assays, and internalization responses were recorded for 60 min at 37°C using an EnVision 2104 Multimode plate reader (PerkinElmer). 100 nM GLP-1 was used as a positive control for SNAP-GLP1R internalization. Real-time internalization responses were calculated based on TR-FRET (excitation 340 nm; emission 520 nm and 615 nm), and were expressed as the ratio between donor (terbium) and acceptor (fluorescein) emission. For peptide screening analysis (both DMR and internalization assays), we calculated the area under the curve from the real-time traces. As the magnitude of the responses was variable between orphan receptor targets, particularly for the SNAP-tag based internalization assay where the signal is dependent on receptor surface expression, the AUC values were normalized to their respective plate averages and expressed as fold change. Validation experiments for receptor internalization were performed as above. Internalization data was processed in MS-Excel and area under the curve was used to generate concentration-response curves using GraphPad Prism 7.0. Data represent mean ± standard error of the mean (SEM) from at least 3 biologically independent experiments.

A further assay deals with T4, MAS1 (Homo sapiens, UniProt P04201).
T4 construct: host or cells: HTLA cells (HEK293-derived)
T4 sequence (P04201 1-325): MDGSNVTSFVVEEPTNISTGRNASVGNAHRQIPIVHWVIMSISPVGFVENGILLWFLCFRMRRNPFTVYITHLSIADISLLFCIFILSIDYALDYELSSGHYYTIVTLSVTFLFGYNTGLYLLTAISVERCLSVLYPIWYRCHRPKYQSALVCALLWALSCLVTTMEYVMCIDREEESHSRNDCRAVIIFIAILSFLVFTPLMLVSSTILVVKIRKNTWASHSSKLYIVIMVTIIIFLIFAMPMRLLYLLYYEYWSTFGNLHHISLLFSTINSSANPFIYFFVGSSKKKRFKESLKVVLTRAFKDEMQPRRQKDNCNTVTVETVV
Briefly: β-arrestin recruitment (Tango), indicative pairing. In kind it is cell-based. Conditions: mean, n = 3. As to the method:
The peptide library was additionally screened against 120 GPCR targets in parallel, including all available orphan receptors and 27 known class A peptide receptors using the Tango assay platform ([Kroeze et al., 2015]). Briefly, HTLA cells (a HEK293 cell line stably expressing a tTA-dependent luciferase reporter and a β-arrestin2-TEV fusion gene) were plated 10,000 cells/well in poly-L-lysine–coated clear-bottom white 384-well plates in DMEM supplemented with 10% FBS, 100 U/ml penicillin and 100 μg/ml streptomycin, 2 μg/ml puromycin and 100 μg/ml hygromycin B. 24 hr later, cells were transfected with Tango GPCR constructs using the calcium phosphate method ([Jordan et al., 1996]). The next day, culture medium was changed to DMEM + 1% dFBS and 10 μM peptides were added for overnight stimulation. Bright-Glo solution (Promega) was incubated for 15–20 min at room temperature, and luminescence was counted using a Trilux luminescence counter (Wallac).
For subsequent peptide validation experiments using Tango assays, HTLA cells were transiently transfected in 10 cm dishes with the receptor of interest using polyethylenimine (PEI) ([Longo et al., 2013]). After 24 hr, 25,000 cells/well were plated in clear bottom, white-walled 384-well plates. Assays were performed as described above, with luminescence measured using an EnSpire 2300 Multimode plate reader (PerkinElmer). Luminescence counts were exported into Excel and were analyzed using GraphPad Prism 7.

The test system of the next assay is GPR37. As to the kind of experiment: Repeat of proposed literature pairing (mass redistribution and/or internalization). The assay is classed as cell-based, human. Conditions: repeat of literature pairing; Figure S7A, Tables S5 and S7.
From the text: as §1, §3

On to “ACTH (SYSMEHFRWGKPVGKKRRPVKVYPNGAEDESAEAFPLEF; Corticotropin; UniProt P01189 138-176, looked up) [melanocortin receptor ligand, reference compound]”, for which the “Peptide pairing for orphan receptor GPR139 (confirmed/unconfirmed)” value in the assay with GPR139 (repeat of literature pairing) was “Confirmed peptide pairings for orphans”. Besides, the “receptor-dependent activation by proposed ligand, GPR139” value with GPR139 (repeat of literature pairing across multiple assays, Figure S7A, Tables S5 and S7) is “selective receptor-dependent activation”. The pKi_value is 7.1 at human GPCRs (receptor mc3r_human (MC3R, P41968)); 6.2 on human GPCRs (receptor mc4r_human (MC4R, P32245)); 5 on human GPCRs (receptor mc5r_human (MC5R, P33032)); 8.6 on human GPCRs (receptor mshr_human (MC1R, Q01726)).

As to ARANMEAGTMSHFPSLPQRF [Peptide 135], at NPFF1, the “Emax, Tango (fold over basal)” value was determined as 22.0 fold over basal and the “pEC50, Tango (fold over basal)” value was determined as 6.22.

In the case of KRRPAKAWS [Peptide 64.1], on GPR15 [1], the “cAMP accumulation assays Emax (% FSK)” value is reported as 98.3 % FSK. Also, the “DMR assays Emax (peak or AUC)” value at GPR15 [2] stood at 107. The “Internalization assays Emax (AUC)” value at GPR15 [3] is listed as 3.1.

Take “KRRPAKAWSGRRTRLCCHRVPSPNSTNLKGHHVRLCKPCKLEPEPRLWVVPGALPQV (disulfide 16-39, 17-36) [64.4 (Phoenix)]”: on GPR15 [1] (read-out: cAMP accumulation assays Emax (% FSK)), the Emax amounted to 41%. Further, the EC50 at GPR15 [1] (read-out: cAMP accumulation assays pEC50 (converted)) was 1.26 nM; on GPR15 [2] (SEM and n (3), read-out: DMR assays pEC50 (converted)) it was 324 nM; at GPR15 [3] (read-out: Internalization assays pEC50 (converted)), 89.1 nM.

In the case of LWVVPGALPQV [64 original], the “cAMP accumulation assays Emax (% FSK)” value at GPR15 [1] amounted to 29.2 % FSK. Moreover, at GPR15 [2], the “DMR assays Emax (peak or AUC)” value was 197. In addition, the “Internalization assays Emax (AUC)” value at GPR15 [3] was found to be 45.8.

“NAWGPWSKEQLSPQAREFWSLAAPQRF [Peptide 166]”: the entries for the “Emax, Tango (fold over basal)” value at MAS1 and on NPFF1 were 1.2 fold over basal and 26.7 fold over basal, respectively. Also, the “pEC50, Tango (fold over basal)” value stood at 7.14 at MAS1 and 4.75 on NPFF1.

In the case of RPYLTQGNEIFPD [Peptide 90], on NPFF1, the “Emax, Tango (fold over basal)” value is listed as 9.6 fold over basal and the “pEC50, Tango (fold over basal)” value is reported as 4.27.

For the substance “TRLCCHRVPSPNSTNLKGHHVRLCKPCKLEPE (also: bicyclic or more (positions not given here)) [Peptide 64.2]”, the “cAMP accumulation assays Emax (% FSK)” value on GPR15 [1] is 92.5 % FSK. Further, at GPR15 [2], the “DMR assays Emax (peak or AUC)” value came out at 81. Further, the “Internalization assays Emax (AUC)” value at GPR15 [3] was 4.3.

For the substance head activator, the “receptor-dependent activation by proposed ligand, GPR37” value with GPR37 was “no activity”.
